Assay results as given in ChEMBL document CHEMBL1156230, “Identification of phenylsulfone-substituted quinoxaline (WYE-672) as a tissue selective liver X-receptor (LXR) agonist” (J Med Chem, 2010).
Activity calls are given as the source filed them. The rule behind the calls is not given here.

Legend:
Mus musculus [1] = organism: Mus musculus; assay: Antiatherosclerotic activity against high fat/high cholesterol fed LDLR-deficient mouse assessed as reduction in total plasma cholesterol; type: functional, organism-based
Mus musculus [2] = assay: Antiatherosclerotic activity against high fat/high cholesterol fed LDLR-deficient mouse duodenum assessed as induction of ABCA1 expression at 10 mg/kg administered with diet for 8 weeks; type: functional, organism-based; parameters: dose 10 mg/kg
Mus musculus [3] = assay: Antiatherosclerotic activity against high fat/high cholesterol fed LDLR-deficient mouse duodenum assessed as induction of ABCG8 expression at 0.6 mg/kg administered with diet for 8 weeks; type: functional, organism-based; parameters: dose 0.6 mg/kg
Mus musculus [4] = assay: Antiatherosclerotic activity against high fat/high cholesterol fed LDLR-deficient mouse duodenum assessed as induction of ABCG8 expression at 10 mg/kg administered with diet for 8 weeks; type: functional, organism-based; parameters: dose 10 mg/kg
Mus musculus [5] = assay: Antiatherosclerotic activity against high fat/high cholesterol fed LDLR-deficient mouse duodenum assessed as induction of SREBP-1c expression at 0.6 mg/kg administered with diet for 8 weeks; type: functional, organism-based; parameters: dose 0.6 mg/kg
Mus musculus [6] = assay: Antiatherosclerotic activity against high fat/high cholesterol fed LDLR-deficient mouse duodenum assessed as induction of SREBP-1c expression at 3 mg/kg administered with diet for 8 weeks; type: functional, organism-based; parameters: dose 3 mg/kg
Mus musculus [7] = assay: Antiatherosclerotic activity against high fat/high cholesterol fed LDLR-deficient mouse macrophages assessed as induction of ABCA1 expression at 10 mg/kg administered with diet for 8 weeks; type: functional, organism-based; parameters: dose 10 mg/kg
Mus musculus [8] = assay: Antiatherosclerotic activity against high fat/high cholesterol fed LDLR-deficient mouse macrophages assessed as induction of ABCA1 expression at 0.6 mg/kg administered with diet for 8 weeks; type: functional, organism-based; parameters: dose 0.6 mg/kg
Mus musculus [9] = assay: Antiatherosclerotic activity against high fat/high cholesterol fed LDLR-deficient mouse macrophages assessed as induction of ABCA1 expression at 3 mg/kg administered with diet for 8 weeks; type: functional, organism-based; parameters: dose 3 mg/kg
Mus musculus [10] = assay: Antiatherosclerotic activity against high fat/high cholesterol fed LDLR-deficient mouse macrophages assessed as induction of ABCG1 expression at 10 mg/kg administered with diet for 8 weeks; type: functional, organism-based; parameters: dose 10 mg/kg
Mus musculus [11] = assay: Antiatherosclerotic activity against high fat/high cholesterol fed LDLR-deficient mouse macrophages assessed as induction of ABCG1 expression at 0.6 mg/kg administered with diet for 8 weeks; type: functional, organism-based; parameters: dose 0.6 mg/kg
Mus musculus [12] = assay: Antiatherosclerotic activity against high fat/high cholesterol fed LDLR-deficient mouse macrophages assessed as induction of ABCG1 expression at 3 mg/kg administered with diet for 8 weeks; type: functional, organism-based; parameters: dose 3 mg/kg
Mus musculus [13] = assay: Antiatherosclerotic activity against high fat/high cholesterol fed LDLR-deficient mouse assessed as abca1 gene regulation at 0.6 mg/kg administered with diet for 7 days by Experion chip analysis; type: functional, organism-based; parameters: dose 0.6 mg/kg
Mus musculus [14] = assay: Antiatherosclerotic activity against high fat/high cholesterol fed LDLR-deficient mouse assessed as abcg1 gene regulation at 0.6 mg/kg administered with diet for 7 days by Experion chip analysis; type: functional, organism-based; parameters: dose 0.6 mg/kg
Mus musculus [15] = assay: Antiatherosclerotic activity against high fat/high cholesterol fed LDLR-deficient mouse assessed as abcg5 gene regulation at 0.6 mg/kg administered with diet for 7 days by Experion chip analysis; type: functional, organism-based; parameters: dose 0.6 mg/kg
Mus musculus [16] = assay: Antiatherosclerotic activity against high fat/high cholesterol fed LDLR-deficient mouse assessed as abcg8 gene regulation at 0.6 mg/kg administered with diet for 7 days by Experion chip analysis; type: functional, organism-based; parameters: dose 0.6 mg/kg
Mus musculus [17] = assay: Antiatherosclerotic activity against high fat/high cholesterol fed LDLR-deficient mouse assessed as adfp gene regulation at 0.6 mg/kg administered with diet for 7 days by Experion chip analysis; type: functional, organism-based; parameters: dose 0.6 mg/kg
Mus musculus [18] = assay: Antiatherosclerotic activity against high fat/high cholesterol fed LDLR-deficient mouse assessed as IPl gene regulation at 0.6 mg/kg administered with diet for 7 days by Experion chip analysis; type: functional, organism-based; parameters: dose 0.6 mg/kg
Mus musculus [19] = assay: Antiatherosclerotic activity against high fat/high cholesterol fed LDLR-deficient mouse assessed as pcsk9 gene regulation at 0.6 mg/kg administered with diet for 7 days by Experion chip analysis; type: functional, organism-based; parameters: dose 0.6 mg/kg
Mus musculus [20] = assay: Antiatherosclerotic activity against high fat/high cholesterol fed LDLR-deficient mouse assessed as pltp gene regulation at 0.6 mg/kg administered with diet for 7 days by Experion chip analysis; type: functional, organism-based; parameters: dose 0.6 mg/kg
Mus musculus [21] = assay: Antiatherosclerotic activity against high fat/high cholesterol fed LDLR-deficient mouse assessed as scab1 gene regulation at 0.6 mg/kg administered with diet for 7 days by Experion chip analysis; type: functional, organism-based; parameters: dose 0.6 mg/kg
Mus musculus [22] = assay: Antiatherosclerotic activity against high fat/high cholesterol fed LDLR-deficient mouse assessed as ldlr gene regulation at 10 mg/kg administered with diet for 7 days by Experion chip analysis; type: functional, organism-based; parameters: dose 10 mg/kg
Mus musculus [23] = assay: Antiatherosclerotic activity against high fat/high cholesterol fed LDLR-deficient mouse assessed as IPl gene regulation at 10 mg/kg administered with diet for 7 days by Experion chip analysis; type: functional, organism-based; parameters: dose 10 mg/kg
Mus musculus [24] = assay: Antiatherosclerotic activity against high fat/high cholesterol fed LDLR-deficient mouse assessed as pltp gene regulation at 10 mg/kg administered with diet for 7 days by Experion chip analysis; type: functional, organism-based; parameters: dose 10 mg/kg
Mus musculus [25] = assay: Antiatherosclerotic activity against high fat/high cholesterol fed LDLR-deficient mouse assessed as srebf1 gene regulation at 10 mg/kg administered with diet for 7 days by Experion chip analysis; type: functional, organism-based; parameters: dose 10 mg/kg
Mus musculus [26] = assay: Antiatherosclerotic activity against high fat/high cholesterol fed LDLR-deficient mouse assessed as srebf1 gene regulation at 0.6 mg/kg administered with diet for 7 days by Experion chip analysis; type: functional, organism-based; parameters: dose 0.6 mg/kg
Mus musculus [27] = assay: Antiatherosclerotic activity against high fat/high cholesterol fed LDLR-deficient mouse assessed as adfp gene regulation at 3 mg/kg administered with diet for 7 days by Experion chip analysis; type: functional, organism-based; parameters: dose 3 mg/kg
Mus musculus [28] = assay: Antiatherosclerotic activity against high fat/high cholesterol fed LDLR-deficient mouse assessed as apo5 gene regulation at 3 mg/kg administered with diet for 7 days by Experion chip analysis; type: functional, organism-based; parameters: dose 3 mg/kg
Mus musculus [29] = assay: Antiatherosclerotic activity against high fat/high cholesterol fed LDLR-deficient mouse assessed as apoe gene regulation at 3 mg/kg administered with diet for 7 days by Experion chip analysis; type: functional, organism-based; parameters: dose 3 mg/kg
Mus musculus [30] = assay: Antiatherosclerotic activity against high fat/high cholesterol fed LDLR-deficient mouse assessed as ldlr gene regulation at 3 mg/kg administered with diet for 7 days by Experion chip analysis; type: functional, organism-based; parameters: dose 3 mg/kg
Mus musculus [31] = assay: Antiatherosclerotic activity against high fat/high cholesterol fed LDLR-deficient mouse assessed as pcsk9 gene regulation at 3 mg/kg administered with diet for 7 days by Experion chip analysis; type: functional, organism-based; parameters: dose 3 mg/kg
Mus musculus [32] = assay: Antiatherosclerotic activity against high fat/high cholesterol fed LDLR-deficient mouse assessed as scab1 gene regulation at 3 mg/kg administered with diet for 7 days by Experion chip analysis; type: functional, organism-based; parameters: dose 3 mg/kg
Mus musculus [33] = assay: Antiatherosclerotic activity against high fat/high cholesterol fed LDLR-deficient mouse assessed as srebf1 gene regulation at 3 mg/kg administered with diet for 7 days by Experion chip analysis; type: functional, organism-based; parameters: dose 3 mg/kg
Mus musculus [34] = assay: Antiatherosclerotic activity against high fat/high cholesterol fed LDLR-deficient mouse assessed as adfp gene regulation at 10 mg/kg administered with diet for 7 days by Experion chip analysis; type: functional, organism-based; parameters: dose 10 mg/kg
Mus musculus [35] = assay: Antiatherosclerotic activity against high fat/high cholesterol fed LDLR-deficient mouse assessed as apoe gene regulation at 10 mg/kg administered with diet for 7 days by Experion chip analysis; type: functional, organism-based; parameters: dose 10 mg/kg
Mus musculus [36] = assay: Antiatherosclerotic activity against high fat/high cholesterol fed LDLR-deficient mouse assessed as cyp7a1 gene regulation at 10 mg/kg administered with diet for 7 days by Experion chip analysis; type: functional, organism-based; parameters: dose 10 mg/kg
Mus musculus [37] = assay: Antiatherosclerotic activity against high fat/high cholesterol fed LDLR-deficient mouse assessed as apoc1 gene regulation at 10 mg/kg administered with diet for 7 days by Experion chip analysis; type: functional, organism-based; parameters: dose 10 mg/kg
Mus musculus [38] = assay: Antiatherosclerotic activity against high fat/high cholesterol fed LDLR-deficient mouse assessed as abcg1 gene regulation at 3 mg/kg administered with diet for 8 weeks by Experion chip analysis

Row | Compound | Activity (Mus musculus [1]) | Activity (Mus musculus [2]) | Activity (Mus musculus [3]) | Activity (Mus musculus [4]) | Activity (Mus musculus [5]) | Activity (Mus musculus [6]) | Activity (Mus musculus [7]) | Activity (Mus musculus [8]) | Activity (Mus musculus [9]) | Activity (Mus musculus [10]) | Activity (Mus musculus [11]) | Activity (Mus musculus [12]) | Activity (Mus musculus [13]) | Activity (Mus musculus [14]) | Activity (Mus musculus [15]) | Activity (Mus musculus [16]) | Activity (Mus musculus [17]) | Activity (Mus musculus [18]) | Activity (Mus musculus [19]) | Activity (Mus musculus [20]) | also measured
1 | O=C(O)Cc1cccc(OCCCN(Cc2cccc(C(F)(F)F)c2Cl)CC(c2ccccc2)c2ccccc2)c1 | inactive | Active | Active | Active | Active | Active | Active | Active | Active | Active | Active | Active | Active | Active | Active | Active | Active | Active | Active | Active | Activity (Mus musculus [21]): Active; Activity (Mus musculus [22]): Active; Activity (Mus musculus [23]): Active; Activity (Mus musculus [24]): Active; Activity (Mus musculus [25]): Active; Activity (Mus musculus [26]): Active; Activity (Mus musculus [27]): Active; Activity (Mus musculus [28]): Active; Activity (Mus musculus [29]): Active; Activity (Mus musculus [30]): Active; Activity (Mus musculus [31]): Active; Activity (Mus musculus [32]): Active; Activity (Mus musculus [33]): inactive; Activity (Mus musculus [34]): Active; Activity (Mus musculus [35]): Active; Activity (Mus musculus [36]): Active; Activity (Mus musculus [37]): Active; Activity (Mus musculus [38]): Active
2 | Cc1nc2c(C(F)(F)F)cccc2nc1-c1ccc(-c2cccc(S(C)(=O)=O)c2)cc1 | inactive | Active | Active | Active | inactive | Active | Active | Active | Active | Active | Active | Active | Active | Active | Active | Active | Active | Active | Active | Active | Activity (Mus musculus [21]): Active; Activity (Mus musculus [22]): Active; Activity (Mus musculus [23]): Active; Activity (Mus musculus [24]): Active; Activity (Mus musculus [25]): Active; Activity (Mus musculus [26]): Active; Activity (Mus musculus [27]): Active; Activity (Mus musculus [28]): Active; Activity (Mus musculus [29]): Active; Activity (Mus musculus [30]): Active; Activity (Mus musculus [31]): Active; Activity (Mus musculus [32]): Active; Activity (Mus musculus [33]): inactive; Activity (Mus musculus [34]): Active; Activity (Mus musculus [35]): Active; Activity (Mus musculus [36]): Active; Activity (Mus musculus [37]): Active; Activity (Mus musculus [38]): Active
